Series [1] in a line: Acute Oral LD50. Particulars: in vivo, standard, accepted protocols. From the text: (§1) Both the acute oral LD50 and acute dermal LD50 tests were run in accordance with standard, accepted protocols.
Series [2] can be described thus: Acute Dermal LD50. Particulars: in vivo, topical or ocular, standard, accepted protocols.
Description: as §1

For series [3] the following is noted: data available from Dow Chemical on Dowicil 100; cited from earlier work.
For series [4] the following is noted: data available from Dow Chemical on Dowicil 200; cited from earlier work.
Series [5] deals with gram positive and gram negative microorganisms. The series can be described thus: antimicrobial spectrum, general statement. From the text:
The two-to-one quaternary ammonium adduct of this invention is particularly useful as an antimicrobial agent in a wide variety of water-based systems such as latex paints, resin emulsions, joint cement, adhesives, dispersed pigments and dyes, and other similar aqueous compositions.

The test system of series [6] is bacterial cultures. Put plainly: microbial stability of oil-water hair dressing emulsion (Example 5). The following applies: 0.2% adduct in oil-water hair dressing emulsion; after 6 months at 35° C. How it is done:
The following is a formulation for an oil-water hair dressing emulsion: […]
Part A is heated to 75° C. and Part B is heated to 70° C. The test compound (Part C) is dissolved in Part B and the resulting solution added to Part A with good agitation. The mixture was perfumed 45° C. and agitated until cold.
The composition prepared above was tested for microbial stability for a period of 6 months and after 6 months at 35° C.

The nature of series [7]: toxicological comparison with the one-to-one adducts (acute dermal and acute oral LD50). It is filed as in vivo.
Description: Additionally, the two-to-one adduct formed from hexamethylenetetramine and 3,4-dichlorobutene-1 according to this invention is less toxic than either the Frank or Wolf one-to-one adducts.
as §1

Series [8] is described as follows: thermal decomposition. The class given is physicochemical.
In series [9] the test system is Pseudomonas aeruginosa. The series can be described thus: antibacterial properties of latex paint inoculated with Pseudomonas aeruginosa (Example 4). Particulars: 3.6 grams adduct in vinyl acrylic paint. As to the method:
To a 1 gallon stainless steel beaker, equipped with a sheer type agitator, the following ingredients are charged in sequence:
This premix is then added to the above with agitation such that excessive air is not incorporated. To the above prepared combination is added 1,401 grams of a vinyl acrylic resin emulsion and mixed for a period of 10 minutes.
The resulting paint prepared above was examined for antibacterial properties by inoculating a portion with approximately 10^8 organisms per ml Pseudomonas aeruginosa. Paint samples returned to sterility within 24 hours of inoculation and maintained the same degree of preservation for periods in excess of 9 months, at which time the testing was discontinued.

Series [10] deals with common forms of bacteria. The series can be described thus: antimicrobial effectiveness in water-based systems, general statement. Particulars: relative to suggested range 0.05% to 0.20%. The source says:
The two-to-one quaternary ammonium adduct of this invention is useful in the preparation and storage of systems susceptible to deterioration by microorganisms such as the common forms of bacteria. The exact concentration of the adduct during use is dependent upon a number of factors including duration of storage, temperature of storage, etc.

A short description of series [11]: water solubility. The class given is physicochemical.

For `ClCC=CC[N+]12CN3CN(CN(C3)C1)C2` [reference compound], the LD50 in series [1] amounted to 1600 mg/kg; in series [2] it was 2000 mg/kg.
Regarding `ClC=CC[N+]12CN3CN(CN(C3)C1)C2`, the “Acute Oral LD50” value in series [3] is recorded as 745 mg/kg. Also, in series [4], the “Acute Dermal LD50” value is on record as 540 mg/kg.
With `C(=CC[N+]12CN3CN(CN(C3)C1)C2)C[N+]12CN3CN(CN(C3)C1)C2` [1,1'-(but-2-enylene) bis(3,5,7-triaza-1-azoniaadamantane chloride)], in [5], the effectiveness against microorganisms entry is “effective against a broad spectrum of gram positive and gram negative microorganisms”. In addition, the “resistance to bacterial contamination on inoculation with bacterial cultures” value in series [6] is on record as “still resistant to bacterial contamination”. For the same compound, the “toxicity relative to the Frank or Wolf one-to-one adducts” value in series [7] is “less toxic”. The decomposition point result in [8] is “about 130 °C”. Further, the LD50 in series [1] worked out at 3400 mg/kg; in series [2] it was 8000 mg/kg. In addition, the “preservation of paint viscosity, stability and performance characteristics” value in series [9] was “maintained the viscosity, stability and performance characteristics of the paint”. Also, the “time for paint samples to return to sterility after inoculation” value in series [9] (approximately 10^8 organisms per ml Pseudomonas aeruginosa) was at most 24 h. Further, in series [9] (testing then discontinued), the “period for which the same degree of preservation was maintained” value was above 9 months. The “minimal inhibitory concentrations vis-a-vis the common bacteria” value in series [10] is listed as “much less than this suggested range”. In addition, the water solubility result in [11] is “water-soluble”.

Values taken from USRE29883E, “Antibacterial product” (Cosan Chemical Corporation, priority 1977, dated 1979).
